Test results: patent US12201640B2, “19-nor C3,3-disubstituted C21-n-pyrazolyl steroids and methods of use thereof” (Sage Therapeutics, Inc., priority 2013, dated 2025)

Legend:
GABAA receptor α1β2γ2 = target: T1, GABAA receptor α1β2γ2 (Homo sapiens, UniProt P14867+P47870); assay: Patch clamp electrophysiology, Qpatch in Ltk cells; type: cell-based; conditions: 10 μM test article, GABA EC20 2 μM, read-out: GABA (α1β2γ2) Qpatch in Ltk, % efficacy at 10 μM
T1 construct: expressed in transfected cells
T1 sequence (P14867 28-456): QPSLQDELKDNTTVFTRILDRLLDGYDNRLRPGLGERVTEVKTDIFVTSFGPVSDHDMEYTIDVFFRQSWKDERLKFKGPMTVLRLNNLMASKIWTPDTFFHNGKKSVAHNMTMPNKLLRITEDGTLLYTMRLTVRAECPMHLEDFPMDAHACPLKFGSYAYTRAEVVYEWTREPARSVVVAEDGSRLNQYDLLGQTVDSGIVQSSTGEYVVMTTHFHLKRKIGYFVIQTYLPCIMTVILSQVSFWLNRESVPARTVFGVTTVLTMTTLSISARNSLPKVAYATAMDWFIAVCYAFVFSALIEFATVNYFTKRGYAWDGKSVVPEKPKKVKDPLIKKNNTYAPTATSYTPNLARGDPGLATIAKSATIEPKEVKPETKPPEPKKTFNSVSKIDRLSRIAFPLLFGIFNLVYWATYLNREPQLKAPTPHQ
T1 sequence (P47870 25-512 limits assumed): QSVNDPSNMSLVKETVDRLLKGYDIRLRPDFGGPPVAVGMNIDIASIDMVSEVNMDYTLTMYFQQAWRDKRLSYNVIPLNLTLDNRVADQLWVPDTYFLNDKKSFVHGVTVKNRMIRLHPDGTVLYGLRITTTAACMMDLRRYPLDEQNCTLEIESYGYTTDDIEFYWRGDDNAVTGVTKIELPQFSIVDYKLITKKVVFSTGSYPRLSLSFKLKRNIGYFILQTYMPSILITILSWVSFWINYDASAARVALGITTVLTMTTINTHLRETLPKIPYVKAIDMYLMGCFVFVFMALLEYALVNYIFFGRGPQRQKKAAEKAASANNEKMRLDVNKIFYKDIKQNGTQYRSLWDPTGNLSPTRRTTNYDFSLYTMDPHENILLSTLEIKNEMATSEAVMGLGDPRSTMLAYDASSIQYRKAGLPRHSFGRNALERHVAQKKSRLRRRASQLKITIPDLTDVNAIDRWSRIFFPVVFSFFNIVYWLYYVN
T1 sequence (P18507 40-475 partner): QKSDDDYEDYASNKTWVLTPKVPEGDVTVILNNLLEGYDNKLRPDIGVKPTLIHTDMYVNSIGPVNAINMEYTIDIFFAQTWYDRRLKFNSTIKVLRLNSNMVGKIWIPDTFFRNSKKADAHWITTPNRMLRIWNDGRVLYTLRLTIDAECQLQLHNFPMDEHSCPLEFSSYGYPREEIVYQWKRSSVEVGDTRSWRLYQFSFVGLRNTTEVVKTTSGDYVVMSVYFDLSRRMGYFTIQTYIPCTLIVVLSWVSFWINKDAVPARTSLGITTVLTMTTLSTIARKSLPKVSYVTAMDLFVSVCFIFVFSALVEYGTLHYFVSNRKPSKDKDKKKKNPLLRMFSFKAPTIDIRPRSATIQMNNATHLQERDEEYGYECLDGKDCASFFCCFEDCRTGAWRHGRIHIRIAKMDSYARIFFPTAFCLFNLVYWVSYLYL
How it was run: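 Whole-cell voltage clamp at −80 mV, room temperature: α1β2γ2 stably expressed in Ltk cells (QPatch), α4β3δ transiently in CHO cells (manual patch). Compound at 0.01–10 μM pre-applied 30 s, then 2 μM GABA (EC20) for 2 s. Potentiation = peak current with compound / GABA alone × 100.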

[1] = target: [35S]-TBPS binding, rat brain cortical membranes (GABA receptor complex); assay: Steroid inhibition of [35S]-TBPS binding; conditions: 3 nM [35S]-TBPS, 5 μM GABA
Protocol: Steroid Inhibition of TBPS Binding
[35S]-t-Butylbicyclophosphorothionate (TBPS) binding assays using rat brain cortical membranes in the presence of 5 μM GABA has been described (Gee et al, J. Pharmacol. Exp. Ther. 1987, 241, 346-353; Hawkinson et al, Mol. Pharmacol. 1994, 46, 977-985; Lewin, A. H et al., Mol. Pharmacol. 1989, 35, 189-194).
Briefly, cortices are rapidly removed following decapitation of carbon dioxide-anesthetized Sprague-Dawley rats (200-250 g). The cortices are homogenized in 10 volumes of ice-cold 0.32 M sucrose using a glass/teflon homogenizer and centrifuged at 1500×g for 10 min at 4° C. The resultant supernatants are centrifuged at 10,000×g for 20 min at 4° C. to obtain the P2 pellets. The P2 pellets are resuspended in 200 mM NaCl/50 mM Na-K phosphate pH 7.4 buffer and centrifuged at 10,000×g for 10 min at 4° C. This washing procedure is repeated twice and the pellets are resuspended in 10 volumes of buffer. Aliquots (100 μL) of the membrane suspensions are incubated with 3 nM [^35S]-TBPS and 5 μL aliquots of test drug dissolved in dimethyl sulfoxide (DMSO) (final 0.5%) in the presence of 5 μM GABA. The incubation is brought to a final volume of 1.0 mL with buffer. Nonspecific binding is determined in the presence of 2 μM unlabeled TBPS and ranged from 15 to 25%. Following a 90 min incubation at room temp, the assays are terminated by filtration through glass fiber filters (Schleicher and Schuell No. 32) using a cell harvester (Brandel) and rinsed three times with ice-cold buffer. Filter bound radioactivity is measured by liquid scintillation spectrometry. Non-linear curve fitting of the overall data for each drug averaged for each concentration is done using Prism (GraphPad). […] The concentration of test compound producing 50% inhibition (IC50) of specific binding and the maximal extent of inhibition (Imax) are determined for the individual experiments with the same model used for the overall data and then the means±SEM.s of the individual experiments are calculated.
Various compounds are or can be screened to determine their potential as modulators of [^35S]-TBPS binding in vitro. These assays are or can be performed in accordance with the above discussed procedures.

Row | Structure (SMILES) | Emax at 10 µM (GABAA receptor α1β2γ2) | IC50 [1]
1 | C[C@@]1(O)CC[C@H]2[C@H](CC[C@@H]3[C@@H]2CC[C@]2(C)[C@@H](C(=O)Cn4cc(C#N)cn4)CC[C@@H]32)C1 [SA-4] | 100 to 500% | < 0.01 µM
2 | Cc1cnn(CC(=O)[C@H]2CC[C@H]3[C@@H]4CC[C@@H]5C[C@](C)(O)CC[C@@H]5[C@H]4CC[C@]23C)c1 [SA-6] | 100 to 500% | 0.01 to 0.05 µM
3 | C[C@@]1(O)CC[C@H]2[C@H](CC[C@@H]3[C@@H]2CC[C@]2(C)[C@@H](C(=O)Cn4cccn4)CC[C@@H]32)C1 [SA-13] | 100 to 500% | 0.01 to 0.05 µM
